# Results from ChEMBL document CHEMBL1201862, “PubChem BioAssay data set” (2004).
# Active and inactive are the calls of the source. Cut-off read from the data, not from the text of the source, for most assays here: actives have a measured EC50 and inactives only a lower limit.
# Key:
# [1] = Luminescence Cell-Based Dose Retest to Confirm Inhibitors of Cancer Stem Cells. [Related pubchem assays (depositor defined):AID2717, AID2721]; assay type: functional; conditions: Homo sapiens
# [2] = system: INS1; assay: beta cell apoptosis inhibitors, cytokine rescue, dose response, luminescence, retest (AID 449756); assay type: functional, cell-based; conditions: Rattus norvegicus;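 note: cell death triggered by IL-1 beta plus TNF-alpha plus IFN-gamma mixture; protective hits raise ATP signal compared with cytokine alone wells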
# [3] = NIH-3T3 fibroblast cytotoxicity, dose response, cytotoxicity control, cell-based, fluorescence, Alamar Blue, secondary assay (AID 2327); assay type: functional;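 note: NIH-3T3 mouse fibroblasts cultured with fluconazole at 8 µg/mL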
# [4] = C. albicans growth with fluconazole, confirmation, fluorescence, retest (AID 2467); assay type: functional, cell-based
# [5] = target: T1, RNA-binding protein pos-1 (Caenorhabditis elegans, UniProt G5EF15); assay: inhibitors of POS-1/mex-3 RNA binding, dose response, biochemical, fluorescence polarization (AID 1964);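 note: purified POS-1 fused to maltose binding protein made in E. coli; potency of compounds blocking POS-1 binding to fluorescent RNA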
# T1 sequence (G5EF15 whole entry): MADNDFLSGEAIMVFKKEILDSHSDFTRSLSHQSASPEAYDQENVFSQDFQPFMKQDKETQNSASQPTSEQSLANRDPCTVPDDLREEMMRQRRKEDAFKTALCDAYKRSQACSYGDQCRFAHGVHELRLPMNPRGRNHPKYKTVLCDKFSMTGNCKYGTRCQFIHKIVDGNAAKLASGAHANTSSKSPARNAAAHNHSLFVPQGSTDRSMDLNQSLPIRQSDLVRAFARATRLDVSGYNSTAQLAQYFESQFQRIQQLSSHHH
# [6] = target: T2, Zinc finger protein mex-5 (Caenorhabditis elegans, UniProt Q9XUB2); assay: MEX-5/TCR-2 RNA interaction inhibitors, dose response, biochemical, C. elegans, fluorescence polarization (AID 1960)
# T2 sequence (Q9XUB2 whole entry): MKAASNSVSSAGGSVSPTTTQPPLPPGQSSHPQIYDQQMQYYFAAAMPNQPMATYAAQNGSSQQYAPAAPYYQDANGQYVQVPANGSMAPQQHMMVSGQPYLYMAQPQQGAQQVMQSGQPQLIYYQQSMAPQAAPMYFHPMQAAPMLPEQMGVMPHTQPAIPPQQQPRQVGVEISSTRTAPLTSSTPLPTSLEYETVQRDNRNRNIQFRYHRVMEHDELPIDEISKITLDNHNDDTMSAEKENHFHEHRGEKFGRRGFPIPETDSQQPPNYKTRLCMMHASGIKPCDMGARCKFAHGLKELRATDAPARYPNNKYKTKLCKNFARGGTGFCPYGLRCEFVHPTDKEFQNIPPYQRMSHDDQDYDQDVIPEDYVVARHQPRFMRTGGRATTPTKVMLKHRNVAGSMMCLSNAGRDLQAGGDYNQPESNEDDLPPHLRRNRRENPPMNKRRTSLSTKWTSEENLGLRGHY
# [7] = system: Streptococcus; assay: Group A Streptococcus viability loss, dose response, counter-screen for streptokinase expression inhibitor project, luminescence, BacTiterGlo (AID 1915); assay type: functional, organism-based;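 note: potency for reduction of bacterial viability or growth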
# [8] = target: T3, Streptokinase A (Streptococcus pyogenes serotype M1, UniProt P10520); assay: S. pyogenes streptokinase expression inhibitors, potency, dose response, plasminogen activation absorbance, OD405 (AID 1914); assay type: functional, Streptococcus pyogenes M1 GAS;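 note: secreted streptokinase activity via plasminogen activation per viability signal from cell pellet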
# T3 sequence (P10520 whole entry): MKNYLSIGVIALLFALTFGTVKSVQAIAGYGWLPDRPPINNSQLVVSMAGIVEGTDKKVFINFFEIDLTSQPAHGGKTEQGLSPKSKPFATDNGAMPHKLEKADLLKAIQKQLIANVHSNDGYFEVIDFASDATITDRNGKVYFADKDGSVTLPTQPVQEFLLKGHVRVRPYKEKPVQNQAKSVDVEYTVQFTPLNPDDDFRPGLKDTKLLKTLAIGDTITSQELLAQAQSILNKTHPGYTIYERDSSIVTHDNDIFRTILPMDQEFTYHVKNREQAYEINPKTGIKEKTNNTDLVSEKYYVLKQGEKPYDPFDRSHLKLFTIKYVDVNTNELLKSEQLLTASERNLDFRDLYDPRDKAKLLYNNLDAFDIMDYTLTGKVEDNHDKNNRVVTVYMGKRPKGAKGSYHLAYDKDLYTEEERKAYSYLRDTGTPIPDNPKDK
# [9] = system: Streptococcus sp. 'group A'; assay: growth inhibition of control SK(-) GAS strain, dose response, counter-screen for streptokinase expression inhibitor project, luminescence, kanamycin, BacTiterGlo, confirmation (AID 1900); assay type: functional, organism-based
# [10] = target: T4, Protein RecA (Mycobacterium tuberculosis, UniProt P9WHJ3); assay: Fluorescence Cell-Free Homogeneous Dose Retest to Identify Inhibitors of RecA-Intein Splicing Activity. [Related pubchem assays (depositor defined):AID2097, AID2223, AID489010, AID492950]; assay type: functional
# T4 sequence (P9WHJ3 whole entry): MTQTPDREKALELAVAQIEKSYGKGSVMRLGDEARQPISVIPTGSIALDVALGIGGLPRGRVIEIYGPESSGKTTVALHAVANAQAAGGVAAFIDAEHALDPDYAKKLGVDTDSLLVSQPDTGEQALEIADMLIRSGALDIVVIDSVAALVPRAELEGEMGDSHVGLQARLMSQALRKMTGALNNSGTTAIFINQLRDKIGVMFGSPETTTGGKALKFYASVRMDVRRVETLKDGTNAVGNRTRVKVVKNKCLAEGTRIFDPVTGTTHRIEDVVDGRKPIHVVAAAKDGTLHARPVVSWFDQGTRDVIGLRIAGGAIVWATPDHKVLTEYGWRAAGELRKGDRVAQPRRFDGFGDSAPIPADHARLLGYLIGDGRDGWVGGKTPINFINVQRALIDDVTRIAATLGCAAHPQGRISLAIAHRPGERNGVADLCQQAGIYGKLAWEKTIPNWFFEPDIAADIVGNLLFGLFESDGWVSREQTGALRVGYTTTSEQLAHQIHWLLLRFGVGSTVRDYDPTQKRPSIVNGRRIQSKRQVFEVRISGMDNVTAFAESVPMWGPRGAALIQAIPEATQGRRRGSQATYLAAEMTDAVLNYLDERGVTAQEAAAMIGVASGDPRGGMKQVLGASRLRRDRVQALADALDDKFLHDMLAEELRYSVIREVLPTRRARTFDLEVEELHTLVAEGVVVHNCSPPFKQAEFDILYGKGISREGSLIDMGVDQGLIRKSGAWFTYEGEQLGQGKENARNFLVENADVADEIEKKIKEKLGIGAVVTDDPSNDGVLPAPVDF
# [11] = target: T5, Replicative DNA helicase DnaB (Mycobacterium tuberculosis, UniProt P9WMR3); assay: DnaB intein splicing inhibitors, dose response, biochemical, cell-free fluorescence (AID 449749); assay type: functional
# T5 sequence (P9WMR3 whole entry): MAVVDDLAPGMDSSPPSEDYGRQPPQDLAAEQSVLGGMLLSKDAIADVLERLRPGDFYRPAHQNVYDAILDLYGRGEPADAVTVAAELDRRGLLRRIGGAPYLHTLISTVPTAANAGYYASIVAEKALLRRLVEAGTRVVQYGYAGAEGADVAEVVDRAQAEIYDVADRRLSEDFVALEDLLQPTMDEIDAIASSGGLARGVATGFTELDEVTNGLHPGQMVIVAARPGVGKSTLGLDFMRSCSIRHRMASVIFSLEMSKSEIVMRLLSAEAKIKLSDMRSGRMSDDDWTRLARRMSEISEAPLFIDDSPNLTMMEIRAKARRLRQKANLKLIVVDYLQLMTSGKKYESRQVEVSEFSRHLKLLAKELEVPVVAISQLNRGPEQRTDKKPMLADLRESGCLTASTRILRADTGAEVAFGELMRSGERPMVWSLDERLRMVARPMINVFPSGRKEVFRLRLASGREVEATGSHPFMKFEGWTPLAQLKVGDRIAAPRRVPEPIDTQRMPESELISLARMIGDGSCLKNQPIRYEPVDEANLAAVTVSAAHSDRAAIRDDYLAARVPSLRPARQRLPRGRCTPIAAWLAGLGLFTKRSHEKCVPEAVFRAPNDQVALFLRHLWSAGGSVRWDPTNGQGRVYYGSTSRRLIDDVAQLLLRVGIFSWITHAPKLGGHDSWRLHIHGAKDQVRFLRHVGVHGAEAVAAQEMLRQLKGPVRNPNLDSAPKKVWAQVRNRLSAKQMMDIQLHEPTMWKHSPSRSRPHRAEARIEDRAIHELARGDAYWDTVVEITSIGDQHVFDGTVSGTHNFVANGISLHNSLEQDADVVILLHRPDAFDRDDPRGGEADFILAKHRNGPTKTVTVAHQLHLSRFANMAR
# [12] = target: T6, Cytochrome P450 1A2 (Homo sapiens, UniProt P05177);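 note: PubChem cytochrome P450 panel assay, CYP1A2 panel member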
# T6 sequence (P05177 whole entry): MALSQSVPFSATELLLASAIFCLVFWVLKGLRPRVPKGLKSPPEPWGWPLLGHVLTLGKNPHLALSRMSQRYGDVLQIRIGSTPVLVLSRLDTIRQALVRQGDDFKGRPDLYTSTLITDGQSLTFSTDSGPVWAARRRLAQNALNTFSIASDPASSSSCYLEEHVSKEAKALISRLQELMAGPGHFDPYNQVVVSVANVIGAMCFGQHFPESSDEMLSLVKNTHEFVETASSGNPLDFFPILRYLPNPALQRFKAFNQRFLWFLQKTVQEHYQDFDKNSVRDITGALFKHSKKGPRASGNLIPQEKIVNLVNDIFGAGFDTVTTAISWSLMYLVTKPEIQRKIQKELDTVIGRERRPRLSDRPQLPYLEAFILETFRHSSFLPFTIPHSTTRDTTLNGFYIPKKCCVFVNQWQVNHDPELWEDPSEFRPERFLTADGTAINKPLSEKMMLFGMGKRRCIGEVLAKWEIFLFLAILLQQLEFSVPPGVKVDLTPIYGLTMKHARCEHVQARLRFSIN
structure (smiles),measurement,setting,value
COc1ccc2nc(N=Nc3ccc(O)c4ccccc34)sc2c1,AC50,[1],1.73 µM (active)
same,AC50,[2],2.09 µM (active)
CCOC(=O)C1CCCN(c2cc(C)nc3cc(-c4ccc(F)cc4)nn23)C1 (stereo unspecified),EC50,[3],> 160 µM (inactive)
same,EC50,[4],> 38 µM (not active)
Cc1ccc(/C=C2\C(=O)NC(=O)N(CC3CCCO3)C2=O)s1 (stereo unspecified),EC50,[5],> 300 µM (not active)
same,EC50,[6],> 300 µM (not active)
Cc1ccc(C2CC(c3ccc(C)cc3)n3nc(N)nc3N2)cc1 (stereo unspecified),AC50,[2],28.7 µM (active)
Cc1cccc(NC2=NC(=S)N(c3cccc(C(=O)O)c3)C23CCCCC3)c1,EC50,[3],19.7 µM (inconclusive)
same,EC50,[4],2.12 µM (active)
O=C1c2ccccc2C2=Nc3ccccc3SC(c3ccc(Cl)cc3)C12 (stereo unspecified),AC50,[1],5.23 µM (active)
same,AC50,[2],14.1 µM (active)
same,EC50,[7],4.58 µM (active)
same,EC50,[8],> 150 µM (not active)
same,EC50,[9],2.87 µM (active)
Cc1cc(N2C(=O)C(O)=C(C(=O)c3cc4ccccc4o3)C2c2ccc([N+](=O)[O-])cc2)no1 (stereo unspecified),EC50,[5],> 300 µM (not active)
same,EC50,[6],45.4 µM (active)
Cc1ccc(NC(=O)NCc2ccccn2)c(C)c1,EC50,[3],> 160 µM (inactive)
same,EC50,[4],6.59 µM (active)
O=C1NC(=O)/C(=C2\C(=O)Nc3ccc(Br)cc32)S1,EC50,[5],17 µM (active)
same,EC50,[6],11 µM (active)
O=C1N=NC2=C1c1c3ccccc3c(O)n1CC2,EC50,[10],7.63 µM (active)
same,AC50,[11],15.6 µM (active)
O=C(Nc1ccccc1O)c1ccccc1O,EC50,[3],> 150 µM (inactive)
same,EC50,[4],6.43 µM (active)
COc1ccc(C2=CC3=CC(=O)C(C)(O)C(=O)C3=CO2)cc1 (stereo unspecified),EC50,[5],45.6 µM (active)
same,EC50,[6],25.5 µM (active)
O=C(O)c1ccc(/C=C(\c2nc3ccccc3[nH]2)c2nc3ccccc3s2)cc1,EC50,[10],21 µM (active)
same,AC50,[11],> 380 µM (inactive)
Cc1cc(/C=N/n2cnnc2)c(C)n1-c1ccc(C(=O)O)cc1,EC50,[5],> 300 µM (not active)
same,EC50,[6],> 300 µM (not active)
Cc1ccc(-c2ccc(CCC(=O)O)n2-c2ccc(C(=O)O)cc2)cc1,EC50,[5],> 300 µM (not active)
same,EC50,[6],> 300 µM (not active)
CC1(OC(=O)C2CCCC2)C(=O)C=C2C=C(C3CC3)OC=C2C1=O (stereo unspecified),EC50,[5],> 300 µM (not active)
same,EC50,[6],> 300 µM (not active)
O=C(N/N=C/c1ccc([N+](=O)[O-])o1)c1ccccc1NS(=O)(=O)c1cccs1,EC50,[10],125 µM (active)
same,AC50,[11],> 380 µM (inactive)
O=C(CN1CCCc2ccccc21)N/N=C/c1ccccc1O,AC50,[2],4.81 µM (active)
O=C(O)c1ccc(-n2c(=O)c3ccccc3c3ccccc3c2=O)cc1,EC50,[10],70.7 µM (active)
same,AC50,[11],15.8 µM (active)
CCn1c(CNC(=O)c2ccc(Cl)cc2)nnc1SCC(=O)N1CCOCC1,EC50,[5],> 300 µM (not active)
same,EC50,[6],> 300 µM (not active)
CCc1c(C)nc(SCC(=O)NNC(=O)c2ccco2)[nH]c1=O,EC50,[5],7.26 µM (inconclusive)
same,EC50,[6],10.1 µM (active)
CC1(C)CC(=O)C2=C(C1)OC(N)=C(C#N)C2c1ccc(OC(=O)N2CCOCC2)cc1 (stereo unspecified),EC50,[5],> 300 µM (not active)
same,EC50,[6],> 300 µM (not active)
Cc1cc2nc(Sc3c([N+](=O)[O-])nc(C)n3Cc3ccccc3)[nH]c2cc1C,EC50,[10],7.56 µM (active)
same,AC50,[11],11.3 µM (active)
Cc1[nH]c2ccccc2c1CCNC(=O)c1ccc2c(c1[N+](=O)[O-])C(=O)c1ccccc1C2=O,EC50,[10],3.26 µM (active)
same,AC50,[11],10.1 µM (active)
same,AC50,[12],4.47 µM (inconclusive)
COC(/C(=N/O)c1ccc(Cl)cc1)c1ccccc1 (stereo unspecified),AC50,[2],2.72 µM (active)
